Reference: paper PMC5995969, “Structural basis for the regulation of human 5,10-methylenetetrahydrofolate reductase by phosphorylation and S-adenosylmethionine inhibition” (Nature Communications, 2018)

Experiments:
mouse MTHFR = target: T1, mouse MTHFR (Mus musculus, UniProt Q9WU20); test: analytical size exclusion chromatography / DSF; assay type: binding
T1 sequence (Q9WU20 357-654): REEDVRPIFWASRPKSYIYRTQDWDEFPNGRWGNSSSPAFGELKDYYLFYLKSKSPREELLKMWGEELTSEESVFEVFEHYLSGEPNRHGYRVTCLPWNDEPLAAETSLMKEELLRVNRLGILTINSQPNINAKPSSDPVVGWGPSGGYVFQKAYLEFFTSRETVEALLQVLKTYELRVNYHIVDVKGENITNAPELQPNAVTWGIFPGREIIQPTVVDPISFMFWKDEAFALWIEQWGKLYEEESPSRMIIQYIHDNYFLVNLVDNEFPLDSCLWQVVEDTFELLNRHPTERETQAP

[1] = target: T2, 5,10-methylenetetrahydrofolate reductase (MTHFR) (Homo sapiens, UniProt P42898, A368L); test: differential scanning fluorimetry; aSEC; assay type: binding
T2 construct: HsMTHFR348–656
T2 sequence (P42898 348-656 A368L): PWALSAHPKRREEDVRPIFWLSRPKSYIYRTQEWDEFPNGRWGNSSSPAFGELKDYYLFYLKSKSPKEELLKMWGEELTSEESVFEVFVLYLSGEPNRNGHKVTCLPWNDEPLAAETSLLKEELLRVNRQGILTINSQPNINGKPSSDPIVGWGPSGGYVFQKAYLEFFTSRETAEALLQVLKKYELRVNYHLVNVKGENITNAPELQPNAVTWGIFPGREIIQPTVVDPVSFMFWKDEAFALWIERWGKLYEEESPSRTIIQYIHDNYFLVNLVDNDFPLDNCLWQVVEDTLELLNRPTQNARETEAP

[2] = target: T3, 5,10-methylenetetrahydrofolate reductase (MTHFR) (Homo sapiens, UniProt P42898); test: HPLC-based enzyme activity assay; also native MS, DSF and aSEC; assay type: biochemical; details: read-out: Inhibition (μM) / SAM Ki (95% CI)
T3 construct: HsMTHFR1–656 (phosphorylated, as purified)

SMILES | analytical size exclusion chromatography / DSF (mouse MTHFR) | differential scanning fluorimetry; aSEC [1] | Ki [2]
Nc1ncnc2c1ncn2[C@@H]1O[C@H](CSCC[C@H](N)C(=O)O)[C@@H](O)[C@H]1O [SAH, S-adenosylhomocysteine] | A similar pattern of results were observed when using purified recombinant mouse MTHFR of the same protein boundaries | – | –
C[S+](CC[C@H](N)C(=O)[O-])C[C@H]1O[C@@H](n2cnc3c(N)ncnc32)[C@H](O)[C@@H]1O (stereo partly shown) [SAM, S-adenosylmethionine] | A similar pattern of results were observed when using purified recombinant mouse MTHFR of the same protein boundaries | p.A368L resulted in protein which retained the ability to bind SAM, but was less sensitive to change | 2.7 µM
